Reference: PubChem BioAssay AID248 (DTP/NCI, 2004)
Several values for one entry are separate records, joined by “and”; a condition that tells them apart may be missing. Identical values can stand only once. Toxic doses and inconclusive results are not listed. No stated cut-off is given here; in the data, active means T/C of 150% or more; inactive means T/C below 125%.

Tested on: L1210 leukemia ip in BDF1 mice, survival T/C
Test: NCI In Vivo Anticancer Drug Screen. Data for tumor model L1210 Leukemia (intraperitoneal) in B6D2F1 (BDF1) mice
Conditions: endpoint: mean survival time, higher = longer survival
In short: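 Antitumor effect is assessed in tumor-bearing animals. Survival in the compound arm is compared with a vehicle-dosed control arm and expressed as their quotient.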

[1] = dose: 100.0 mg/kg/injection, schedule: Q01DX009 (ip), vehicle: acetone
[2] = dose: 100.0 mg/kg/injection, schedule: Q04DX003 (ip), vehicle: acetone
[3] = dose: 100.0 mg/kg/injection, schedule: Q04DX002 (ip), vehicle: Klucel (hydroxypropylcellulose) (HPC)
[4] = dose: 200.0 mg/kg/injection, schedule: Q04DX002 (ip), vehicle: Klucel (hydroxypropylcellulose) (HPC)
[5] = dose: 400.0 mg/kg/injection, schedule: Q04DX002 (ip), vehicle: Klucel (hydroxypropylcellulose) (HPC)
[6] = dose: 6.25 mg/kg/injection, schedule: Q01DX009 (ip), vehicle: saline with Tween-80
[7] = dose: 12.5 mg/kg/injection, schedule: Q01DX009 (ip), vehicle: saline with Tween-80
[8] = dose: 25.0 mg/kg/injection, schedule: Q01DX009 (ip), vehicle: saline with Tween-80
[9] = dose: 100.0 mg/kg/injection, schedule: Q01DX001 (ip), vehicle: saline
[10] = dose: 100.0 mg/kg/injection, schedule: Q01DX009 (ip), vehicle: saline with Tween-80
[11] = dose: 100.0 mg/kg/injection, schedule: Q04DX003 (ip), vehicle: saline
[12] = dose: 200.0 mg/kg/injection, schedule: Q01DX001 (ip), vehicle: saline
[13] = dose: 200.0 mg/kg/injection, schedule: Q01DX009 (ip), vehicle: saline with Tween-80
[14] = dose: 400.0 mg/kg/injection, schedule: Q01DX001 (ip), vehicle: saline
[15] = dose: 100.0 mg/kg/injection, schedule: Q04DX003 (ip), vehicle: Klucel (hydroxypropylcellulose) (HPC)
[16] = dose: 200.0 mg/kg/injection, schedule: Q04DX003 (ip), vehicle: Klucel (hydroxypropylcellulose) (HPC)
[17] = dose: 75.0 mg/kg/injection, schedule: Q01DX001 (ip), vehicle: saline

Measured: T/C

C#CC(C)OCC(C)OC(C)=O (stereo not drawn)
inactive: dose: 25.0 mg/kg/injection, schedule: Q01DX009 (ip), vehicle: acetone 95 % of control | dose: 50.0 mg/kg/injection, schedule: Q01DX009 (ip), vehicle: acetone 94 % of control | [1] 99 % of control | [2] 100 % of control | dose: 150.0 mg/kg/injection, schedule: Q01DX009 (ip), vehicle: saline 115 % of control | dose: 225.0 mg/kg/injection, schedule: Q01DX009 (ip), vehicle: saline 95 % of control | dose: 335.0 mg/kg/injection, schedule: Q01DX009 (ip), vehicle: saline 93 % of control

O=C(/C=C/c1cccc([N+](=O)[O-])c1)c1ccccc1[N+](=O)[O-]
inactive: [3] 103 % of control | [4] 103 % of control | [5] 100 % of control

CCCCOC(=S)SCC(=O)O
inactive: dose: 100.0 mg/kg/injection, schedule: Q04DX002 (ip), vehicle: other 103 % of control | dose: 200.0 mg/kg/injection, schedule: Q04DX002 (ip), vehicle: other 106 % of control | dose: 400.0 mg/kg/injection, schedule: Q04DX002 (ip), vehicle: other 94 % of control

CC(=N\N)/C(C)=N/N
inactive: [6] 102 % of control | [7] 100 % of control | [8] 107 % of control

O=[N+]([O-])c1ccccc1C=Nc1ccccc1
inactive: [1] 96 % of control | [2] 106 % of control | dose: 200.0 mg/kg/injection, schedule: Q01DX009 (ip), vehicle: acetone 98 % of control | dose: 200.0 mg/kg/injection, schedule: Q04DX003 (ip), vehicle: acetone 97 % of control | dose: 400.0 mg/kg/injection, schedule: Q01DX009 (ip), vehicle: acetone 102 % of control | dose: 400.0 mg/kg/injection, schedule: Q04DX003 (ip), vehicle: acetone 101 % of control

CCOC(=O)c1ccc(NC(=O)Nc2c(C)n(C)n(-c3ccccc3)c2=O)cc1
inactive: [9] 87 % of control | [10] 89 % of control | [11] 89 % of control | [12] 90 % of control | [13] 86 % of control | dose: 200.0 mg/kg/injection, schedule: Q04DX003 (ip), vehicle: saline 89 % of control | [14] 92 % of control | dose: 400.0 mg/kg/injection, schedule: Q04DX003 (ip), vehicle: saline 90 % of control

Cl[CH2][Sn]([c]1ccccc1)([c]1ccccc1)[c]1ccccc1
inactive: [6] 113 % of control | dose: 6.25 mg/kg/injection, schedule: Q01DX009 (ip), vehicle: saline 93 % of control | [7] 106 % of control | dose: 12.5 mg/kg/injection, schedule: Q01DX009 (ip), vehicle: saline 101 % of control | [8] 101 % of control

C=C(C)/C=C/C1CCCCC1
inactive: dose: 50.0 mg/kg/injection, schedule: Q01DX009 (ip), vehicle: saline with Tween-80 95 % of control | [10] 106 % of control | [13] 95 % of control

CCCCCCNC(=O)COc1ccc(Cl)cc1
inactive: [3] 97 % of control | [4] 93 % of control | [5] 101 % of control

O=C(CS)CS
inactive: dose: 6.25 mg/kg/injection, schedule: Q01DX009 (ip), vehicle: water 102 % of control | dose: 12.5 mg/kg/injection, schedule: Q01DX009 (ip), vehicle: water 114 % of control | dose: 25.0 mg/kg/injection, schedule: Q01DX009 (ip), vehicle: water 98 % of control and 105 % of control | dose: 25.0 mg/kg/injection, schedule: Q04DX003 (ip), vehicle: water 102 % of control | dose: 50.0 mg/kg/injection, schedule: Q01DX009 (ip), vehicle: water 97 % of control and 103 % of control | dose: 50.0 mg/kg/injection, schedule: Q04DX003 (ip), vehicle: water 91 % of control | dose: 100.0 mg/kg/injection, schedule: Q04DX003 (ip), vehicle: water 97 % of control

c1ccc2c(c1)ccc1c3c([nH]c12)CCCC3
inactive: dose: 100.0 mg/kg/injection, schedule: Q01DX001 (ip), vehicle: carboxymethylcellulose (CMC) 88 % of control | dose: 200.0 mg/kg/injection, schedule: Q01DX001 (ip), vehicle: carboxymethylcellulose (CMC) 98 % of control | dose: 400.0 mg/kg/injection, schedule: Q01DX001 (ip), vehicle: carboxymethylcellulose (CMC) 88 % of control

NC(=S)N=Nc1ccc(O)cc1
inactive: dose: 50.0 mg/kg/injection, schedule: Q01DX001 (ip), vehicle: saline 103 % of control | [9] 100 % of control | [12] 100 % of control | [14] 109 % of control

CC1CCCCC1OC(=O)CCN1CC1 (stereo not drawn)
inactive: dose: 3.0 mg/kg/injection, schedule: Q01DX009 (ip), vehicle: Klucel (hydroxypropylcellulose) (HPC) 94 % of control | dose: 6.0 mg/kg/injection, schedule: Q01DX009 (ip), vehicle: Klucel (hydroxypropylcellulose) (HPC) 94 % of control | dose: 12.0 mg/kg/injection, schedule: Q01DX009 (ip), vehicle: Klucel (hydroxypropylcellulose) (HPC) 100 % of control | dose: 25.0 mg/kg/injection, schedule: Q01DX009 (ip), vehicle: Klucel (hydroxypropylcellulose) (HPC) 94 % of control and 102 % of control | dose: 50.0 mg/kg/injection, schedule: Q01DX009 (ip), vehicle: Klucel (hydroxypropylcellulose) (HPC) 109 % of control | dose: 50.0 mg/kg/injection, schedule: Q04DX003 (ip), vehicle: Klucel (hydroxypropylcellulose) (HPC) 108 % of control | [15] 97 % of control and 108 % of control | [16] 104 % of control

CCC(Cl)COP(=O)(OCC(Cl)CC)OC(c1ccc(Cl)c(Cl)c1)P(=O)(OCC(Cl)CC)OCC(Cl)CC (stereo not drawn)
inactive: dose: 50.0 mg/kg/injection, schedule: Q01DX001 (ip), vehicle: saline with Tween-80 95 % of control | dose: 100.0 mg/kg/injection, schedule: Q01DX001 (ip), vehicle: saline with Tween-80 103 % of control | dose: 200.0 mg/kg/injection, schedule: Q01DX001 (ip), vehicle: saline with Tween-80 93 % of control

Cc1csc[n+]1C1CCCCC1
inactive: [17] 100 % of control

CNC(=O)CCN1CCN(CC/C=C2\c3ccccc3Sc3ccc(Cl)cc32)CC1
inactive: dose: 1.56 mg/kg/injection, schedule: Q03HX024 (ip), vehicle: saline 95 % of control | dose: 2.05 mg/kg/injection, schedule: Q01DX009 (ip), vehicle: saline 90 % of control | dose: 3.12 mg/kg/injection, schedule: Q03HX024 (ip), vehicle: saline 100 % of control | dose: 4.1 mg/kg/injection, schedule: Q01DX009 (ip), vehicle: saline 94 % of control | dose: 8.2 mg/kg/injection, schedule: Q01DX009 (ip), vehicle: saline 111 % of control | dose: 16.5 mg/kg/injection, schedule: Q01DX009 (ip), vehicle: saline 111 % of control | dose: 18.75 mg/kg/injection, schedule: Q01DX001 (ip), vehicle: saline 106 % of control | dose: 25.0 mg/kg/injection, schedule: Q04DX003 (ip), vehicle: saline 122 % of control | dose: 37.5 mg/kg/injection, schedule: Q01DX001 (ip), vehicle: saline 108 % of control | [17] 106 % of control | [11] 114 % of control | dose: 150.0 mg/kg/injection, schedule: Q01DX001 (ip), vehicle: saline 106 % of control

CC(=O)OCc1ccc(/C=N/N2C(=O)CSC2=S)o1
inactive: dose: 75.0 mg/kg/injection, schedule: Q01DX001 (ip), vehicle: carboxymethylcellulose (CMC) 105 % of control | dose: 150.0 mg/kg/injection, schedule: Q01DX001 (ip), vehicle: carboxymethylcellulose (CMC) 100 % of control | dose: 300.0 mg/kg/injection, schedule: Q01DX001 (ip), vehicle: carboxymethylcellulose (CMC) 97 % of control

Cc1ccc(NS(=O)(=O)c2ccccc2)cc1Cl
inactive: dose: 100.0 mg/kg/injection, schedule: Q01DX009 (ip), vehicle: Klucel (hydroxypropylcellulose) (HPC) 106 % of control | [15] 108 % of control | dose: 200.0 mg/kg/injection, schedule: Q01DX009 (ip), vehicle: Klucel (hydroxypropylcellulose) (HPC) 109 % of control | [16] 98 % of control | dose: 400.0 mg/kg/injection, schedule: Q01DX009 (ip), vehicle: Klucel (hydroxypropylcellulose) (HPC) 98 % of control | dose: 400.0 mg/kg/injection, schedule: Q04DX003 (ip), vehicle: Klucel (hydroxypropylcellulose) (HPC) 97 % of control
